Literature values in US20230106731A1, “INHIBITORS OF MUTANT FAMILY TYROSINE-KINASES” (Spectrum Pharmaceuticals, Inc., priority 2017, published 2023).

Experiments:
EGFR/HER2 exon 20 mutant = EGFR/HER2 exon 20 mutant patients
[1] = system: EGFR exon 20 driven NSCLC

| Structure (SMILES) | activity in patients (EGFR/HER2 exon 20 mutant) | activity in patient derived xenograft model [1] |
| --- | --- | --- |
| CS(=O)(=O)CCNCc1ccc(-c2ccc3ncnc(Nc4ccc(OCc5cccc(F)c5)c(Cl)c4)c3c2)o1 [lapatinib] | limited activity | – |
| C=CC(=O)Nc1cc(Nc2nccc(-c3cn(C)c4ccccc34)n2)c(OC)cc1N(C)CCN(C)C [osimertinib] | – | minimal activity |
| CCOc1cc2ncc(C#N)c(Nc3ccc(OCc4ccccn4)c(Cl)c3)c2cc1NC(=O)/C=C/CN(C)C [neratinib] | limited activity | – |
